The record followed here is PubChem BioAssay AID743072 (Broad Institute, 2013).

Usually IC50 stands for the point on the concentration scale where inhibition reaches its midpoint. A word on the IC90: it is the point of the concentration-response curve where the effect stands at 90%.

The test deals with M. tuberculosis BioA-TetON underexpression strain, growth inhibition. Nature of the test: antitubercular activity, BioA-TetON-5 strain, plate reader, dry powder (AID 743072). To be noted: for IC90: measured here: 90% growth inhibition.

The source made the active and inactive calls. No rule for the calls is given here.

Consider `CC(=O)c1ccc(N2CCN(C(=O)c3cccc(F)c3)CC2)cc1`, for which the IC50 is > 50 µM (inactive) and the IC90 is over 50 µM.

As to `Cc1ccc(NC(=O)N2CCN(c3ccccc3)CC2)cc1`, the IC50 is 10.6 µM and the IC90 was over 50 µM.

For the compound `CC(=O)c1ccc(N2CCN(C(=O)c3ccc(Cl)cc3)CC2)cc1`, the IC50 is 27.9 µM and the IC90 was over 50 µM.

For the compound `Cc1cccc(/C=C(\CCC(=O)O)c2nc3ccccc3s2)c1`, the IC50 was 1.8 µM and the IC90 amounted to 9 µM.

In the case of `Cc1cc(C)n2nc(C(=O)Nc3cccnc3)nc2n1`, the IC50 is 50 µM and the IC90 is over 50 µM.

For `Cc1ccc(/C=C(\CCC(=O)O)c2nc3ccccc3s2)cc1`, the IC50 was 1 µM and the IC90 was determined as 2.8 µM.

For the compound `CC(=O)c1ccc(N2CCN(C(=O)c3ccccc3)CC2)cc1`, the IC50 was > 50 µM (inactive) and the IC90 is over 50 µM.

For `O=C(Nc1cccc(Cl)c1)N1CCN(c2ccccc2)CC1`, the IC50 was 4.9 µM and the IC90 was over 50 µM.

As for `O=C(Nc1ccncc1)c1cc2nc(C3CC3)cc(C(F)F)n2n1`, the IC50 was 50 µM and the IC90 is over 50 µM.

In the case of `O=C(c1ccc2c(c1)OCO2)N1CCN(Cc2ccccc2)CC1`, the IC50 was > 50 µM (inactive) and the concentration for an effect of 90% (IC90) is over 50 µM.

Consider `Cc1ccc(/C=C(\CC(=O)O)c2nc3ccccc3s2)cc1[N+](=O)[O-]`, for which the IC50 is 2.9 µM and the IC90 worked out at 17.2 µM.

As for `COc1ccc(NC(=O)N2CCN(c3ccccc3)CC2)cc1`, the IC50 was 48 µM and the 90% effect concentration (IC90) is over 50 µM.

As to `COc1cc(/C=C/C(=O)Nc2cccnc2)cc(OC)c1OC`, the IC50 was 1.3 µM and the IC90 stood at 15.3 µM.

In the case of `Cc1nc2ccc(NC(=O)N3CCN(c4ccccc4)CC3)cc2s1`, the concentration for half-maximal inhibition (IC50) was 1.3 µM and the IC90 came to 3.8 µM.

On to `CC(=O)c1ccc(N2CCN(Cc3ccc4c(c3)OCO4)CC2)cc1`, for which the IC50 was 25.2 µM and the IC90 is over 50 µM.

With `COC(=O)c1c(C(=O)OC)c(-c2cccc(F)c2)n2c1CS(=O)C2` (stereo not given), the IC50 is 1.7 µM and the IC90 was determined as 34.9 µM.

For `O=C(Nc1ccc(Cl)c(-c2nc3ccccc3[nH]2)c1)c1cccnc1`, the concentration for half-maximal inhibition (IC50) is 1.9 µM and the 90% effect concentration (IC90) worked out at 14.5 µM.

`O=C(Nc1ccc2snnc2c1)N1CCOCC1`: the IC50 is > 50 µM (inactive) and the IC90 is over 50 µM.

As for `O=C(Nc1cccnc1)N1CCN(c2ccccc2)CC1`, the IC50 was > 50 µM (inactive) and the IC90 is over 50 µM.

Regarding `O=C(Nc1cccnc1)c1cnn2c(C(F)(F)F)cc(-c3ccccc3)nc12`, the IC50 is > 50 µM (inactive) and the IC90 is over 50 µM.

`Cc1nc2cc(NC(=O)N3CCN(c4ccccc4)CC3)ccc2o1`: the IC50 was 36 µM and the IC90 is over 50 µM.

On to `O=C(Nc1cccc(F)c1)N1CCN(c2ccccc2)CC1`, for which the IC50 is 4.6 µM and the IC90 came to 32.9 µM.

As to `O=C(COc1ccc2ccc(=O)oc2c1)N1CCN(c2ccc(F)cc2)CC1`, the IC50 was 10.2 µM and the IC90 was determined as 42.7 µM.

With `O=C(c1ccc2c(c1)OCO2)N1CCN(c2ccccc2)CC1`, the IC50 was 20.9 µM and the IC90 is over 50 µM.

For `O=C(Nc1cccnc1)c1cc2nc(-c3cccs3)cc(C(F)(F)F)n2n1`, the IC50 was > 50 µM (inactive) and the IC90 is over 50 µM.

As for `CC(=O)c1ccc(N2CCN(C(=O)c3ccc4c(c3)OCO4)CC2)cc1`, the IC50 was 1.3 µM and the IC90 is 9.3 µM.

In the case of `O=C(Nc1ccc(Cl)cc1)c1cc2nc(C3CC3)cc(C(F)(F)F)n2n1`, the IC50 is 50 µM and the IC90 was over 50 µM.

As to `CCc1ccc(N2CCN(C(=O)c3ccc4c(c3)OCO4)CC2)cc1`, the IC50 is 6.3 µM and the IC90 was over 50 µM.

With `COc1ccc(C(=O)N2CCN(c3ccc(C(C)=O)cc3)CC2)cc1`, the concentration for half-maximal inhibition (IC50) is 38.5 µM and the IC90 is over 50 µM.

As for `O=C(O)CC/C(=C\c1ccccc1[N+](=O)[O-])c1nc2ccccc2s1`, the IC50 was 50 µM and the IC90 was over 50 µM.

In the case of `CC(=O)c1ccc(N2CCN(C(=O)c3cccc(Cl)c3)CC2)cc1`, the 50% inhibitory concentration (IC50) was 2.2 µM and the IC90 turned out to be 16.5 µM.

On to `Cc1ccc(-c2cc(C(F)(F)F)n3nc(C(=O)Nc4cccnc4)cc3n2)cc1`, for which the IC50 is > 50 µM (inactive) and the IC90 was over 50 µM.

As to `Cc1ccccc1/C=C(\CCC(=O)O)c1nc2ccccc2s1`, the IC50 was 4.7 µM and the concentration for an effect of 90% (IC90) stood at 25.3 µM.

Consider `CC(=O)c1ccc(N2CCN(C(=O)c3ccc4ncsc4c3)CC2)cc1`, for which the 50% inhibitory concentration (IC50) was 12.9 µM and the IC90 is over 50 µM.

As to `CC(=O)c1ccc(N2CCN(C(=O)c3ccc(F)cc3)CC2)cc1`, the IC50 was 44.7 µM and the IC90 is over 50 µM.

Consider `COc1cccc(C(=O)N2CCN(c3ccc(C(C)=O)cc3)CC2)c1`, for which the IC50 was 41.5 µM and the IC90 is over 50 µM.

With `O=C(Nc1ccccc1)N1CCN(c2ccccc2)CC1`, the IC50 was 3.2 µM and the IC90 worked out at 48.2 µM.

In the case of `CCc1ccc(C(=O)N2CCN(Cc3ccc4c(c3)OCO4)CC2)cc1`, the IC50 is 5.2 µM and the IC90 was over 50 µM.

Consider `COc1ccc(N2CCN(C(=O)c3ccc4c(c3)OCO4)CC2)cc1`, for which the IC50 is 17.6 µM and the IC90 is over 50 µM.

Regarding `Cc1cc(C)n2nc(C(=O)Nc3cccnc3)cc2n1`, the IC50 is 4.2 µM and the IC90 was over 50 µM.

For the compound `Cc1ccc(/C=C(\CCC(=O)O)c2nc3ccccc3s2)cc1[N+](=O)[O-]`, the IC50 was 0.3 µM and the IC90 turned out to be 0.7 µM.

Regarding `CC(C)(C)c1ccc(C(=O)N2CCN(c3ccc4c(c3)OCO4)CC2)cc1`, the IC50 is 10.7 µM and the IC90 was 29.5 µM.

With `COc1cccc(NC(=O)N2CCN(c3ccccc3)CC2)c1`, the IC50 is 36.4 µM and the IC90 was over 50 µM.

Turning to `CC(=O)c1ccc(N2CCN(C(=O)c3ccc4c(c3)OCCO4)CC2)cc1`, the IC50 is > 50 µM (inactive) and the 90% effect concentration (IC90) was over 50 µM.

`CCOC(=O)N1CCN(C(=O)Nc2ccc3snnc3c2)CC1`: the IC50 is 3.8 µM and the IC90 was 29.6 µM.

On to `CC(=O)c1ccc(N2CCN(C(=O)c3cccnc3)CC2)cc1`, for which the IC50 was > 50 µM (inactive) and the IC90 was over 50 µM.

As for `O=C(Nc1ccc2snnc2c1)N1CCCCC1`, the IC50 was 22 µM and the IC90 is over 50 µM.

For the compound `COc1cccc(NC(=O)CCC2CCN(C(=O)c3ccc(C(C)=O)s3)CC2)c1`, the half-inhibitory concentration (IC50) was 4.4 µM and the IC90 was over 50 µM.

In the case of `O=C(Nc1ccc(F)cc1)N1CCN(c2ccccc2)CC1`, the IC50 is 5.1 µM and the IC90 is over 50 µM.

Consider `O=C(Nc1cccnc1)c1cnn2c(C(F)F)cc(C3CC3)nc12`, for which the IC50 is 3.3 µM and the concentration for an effect of 90% (IC90) was over 50 µM.

Take `O=C(c1ccc2c(c1)OCO2)N1CCN(c2ccc(Cl)cc2)CC1`: the IC50 was 11.3 µM and the IC90 was 44.5 µM.

In the case of `Cc1ccc(/C=C(\CCCC(=O)O)c2nc3ccccc3s2)cc1[N+](=O)[O-]`, the IC50 was 6.1 µM and the IC90 came out at 46.2 µM.

Consider `CCN(CC)c1ccc2cc(C(=O)c3cccs3)c(=O)oc2c1`, for which the 50% inhibitory concentration (IC50) was 1.1 µM and the IC90 turned out to be 5.6 µM.

For the compound `O=C(Nc1ccc2[nH]ccc2c1)N1CCN(c2ccccc2)CC1`, the IC50 was 11.7 µM and the IC90 was over 50 µM.

On to `O=C(Nc1ccc2snnc2c1)N1CCN(c2ccccc2)CC1`, for which the IC50 is 0.9 µM and the IC90 stood at 8.3 µM.

For `COc1ccc(-c2cc(C(F)(F)F)n3nc(C(=O)Nc4cccnc4)cc3n2)cc1`, the IC50 is 0.3 µM and the IC90 was determined as 0.9 µM.

Consider `CC(=O)c1ccc(N2CCN(C(=O)c3ccc(Br)cc3)CC2)c(F)c1`, for which the IC50 was 4.9 µM and the IC90 was over 50 µM.

On to `CC(=O)c1ccc(N2CCN(C(=O)c3ccc(C)cc3)CC2)cc1`, for which the IC50 was 31.4 µM and the IC90 is over 50 µM.

As to `O=C(O)CC/C(=C\c1ccc([N+](=O)[O-])cc1)c1nc2ccccc2s1`, the IC50 is 1.3 µM and the IC90 was determined as 7.9 µM.

For `O=C(c1ccc2c(c1)OCO2)N1CCN(c2ccc(F)cc2)CC1`, the IC50 is 10.6 µM and the IC90 was over 50 µM.
